Drawing on patent publication US11970463B2, “Compounds and their use” (ASTRAZENECA AB, priority 2021, dated 2024), this text covers solubility, IC50 and EC50 for 22 molecules.

As a reminder, the solubility is how much of the substance goes into solution per volume. A high value points to a readily soluble substance. One may read the IC50 as the concentration at which inhibition is half-maximal. A higher IC50 goes with weaker potency. Broadly, the EC50 is the concentration at which the effect is half-maximal. Read a low EC50 as an effect from little substance.

Data set [1] can be described thus: Solubility (Test F), McIlvaine buffer pH 6.5. It counts as physicochemical. Particulars: disodium hydrogenphosphate-citric acid (McIlvaine) buffer, 25 °C, pH 6.5, aqueous buffer, thermodynamic from solid, McIlvaine buffer pH 6.5, 25° C., 24 to 72 h; theoretical maximum 200 μM.
A further data set can be described thus: Solubility (Test E). It counts as physicochemical.
Data set [2] has as its target T1, Human NLRP3 (Homo sapiens (Human), UniProt Q96P20).
The target in data set [3] is T1, Human NLRP3. The source holds these as a separate data set.
Data set [4] concerns the target T1, Human NLRP3. The data set can be described thus: Human NLRP3 speck formation assay (Test A), nigericin triggered ASC-speck formation in ASC-GFP reporter monocytes.
The next data set deals with hERG (Homo sapiens (Human), UniProt Q12809). The data set can be described thus: hERG assay (Test D), SyncroPatch 384PE patch clamp, hERG-expressing CHO cells. It counts as cell-based. Particulars: rt.
Chain of hERG (Q12809 whole entry): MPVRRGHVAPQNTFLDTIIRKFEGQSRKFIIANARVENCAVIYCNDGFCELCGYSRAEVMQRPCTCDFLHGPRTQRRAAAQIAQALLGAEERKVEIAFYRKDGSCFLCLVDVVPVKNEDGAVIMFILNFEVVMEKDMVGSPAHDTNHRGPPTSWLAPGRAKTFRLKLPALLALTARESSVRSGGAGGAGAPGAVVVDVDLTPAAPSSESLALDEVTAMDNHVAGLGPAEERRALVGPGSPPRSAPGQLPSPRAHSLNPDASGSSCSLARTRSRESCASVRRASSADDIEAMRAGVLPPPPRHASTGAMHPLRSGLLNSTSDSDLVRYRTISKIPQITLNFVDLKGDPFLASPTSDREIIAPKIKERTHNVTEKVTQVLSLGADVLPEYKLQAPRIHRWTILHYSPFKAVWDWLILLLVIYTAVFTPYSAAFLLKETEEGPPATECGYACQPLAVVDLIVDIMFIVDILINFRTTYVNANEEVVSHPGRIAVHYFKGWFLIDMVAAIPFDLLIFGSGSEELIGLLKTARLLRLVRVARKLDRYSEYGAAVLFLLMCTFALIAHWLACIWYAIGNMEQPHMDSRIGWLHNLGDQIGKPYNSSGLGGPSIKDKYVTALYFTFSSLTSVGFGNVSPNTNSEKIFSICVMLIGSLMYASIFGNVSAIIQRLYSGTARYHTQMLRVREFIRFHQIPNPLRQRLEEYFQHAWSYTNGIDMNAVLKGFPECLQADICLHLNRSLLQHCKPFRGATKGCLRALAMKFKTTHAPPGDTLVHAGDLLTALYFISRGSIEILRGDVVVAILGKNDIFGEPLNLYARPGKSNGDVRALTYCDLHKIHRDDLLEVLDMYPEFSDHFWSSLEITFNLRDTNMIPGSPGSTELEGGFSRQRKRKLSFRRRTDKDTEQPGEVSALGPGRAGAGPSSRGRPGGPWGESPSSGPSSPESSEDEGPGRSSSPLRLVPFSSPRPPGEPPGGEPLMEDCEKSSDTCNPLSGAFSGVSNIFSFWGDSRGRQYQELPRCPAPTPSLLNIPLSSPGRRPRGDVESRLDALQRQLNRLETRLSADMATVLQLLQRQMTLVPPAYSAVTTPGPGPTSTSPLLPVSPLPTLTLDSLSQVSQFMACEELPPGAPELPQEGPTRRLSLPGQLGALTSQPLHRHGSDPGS
[5] abbreviates: Test C IC50, IL-1β release, THP-1 cells, LPS 2 μg/mL 24 h, BzATP 1 mM.

Values after ≈ are worked out from the molar mass of the structure shown. Read-outs that look alike come from different tables or passages of the source. A value given as a limit tells only on which side of the number the result lay.

T1 sequence (Q96P20 whole entry): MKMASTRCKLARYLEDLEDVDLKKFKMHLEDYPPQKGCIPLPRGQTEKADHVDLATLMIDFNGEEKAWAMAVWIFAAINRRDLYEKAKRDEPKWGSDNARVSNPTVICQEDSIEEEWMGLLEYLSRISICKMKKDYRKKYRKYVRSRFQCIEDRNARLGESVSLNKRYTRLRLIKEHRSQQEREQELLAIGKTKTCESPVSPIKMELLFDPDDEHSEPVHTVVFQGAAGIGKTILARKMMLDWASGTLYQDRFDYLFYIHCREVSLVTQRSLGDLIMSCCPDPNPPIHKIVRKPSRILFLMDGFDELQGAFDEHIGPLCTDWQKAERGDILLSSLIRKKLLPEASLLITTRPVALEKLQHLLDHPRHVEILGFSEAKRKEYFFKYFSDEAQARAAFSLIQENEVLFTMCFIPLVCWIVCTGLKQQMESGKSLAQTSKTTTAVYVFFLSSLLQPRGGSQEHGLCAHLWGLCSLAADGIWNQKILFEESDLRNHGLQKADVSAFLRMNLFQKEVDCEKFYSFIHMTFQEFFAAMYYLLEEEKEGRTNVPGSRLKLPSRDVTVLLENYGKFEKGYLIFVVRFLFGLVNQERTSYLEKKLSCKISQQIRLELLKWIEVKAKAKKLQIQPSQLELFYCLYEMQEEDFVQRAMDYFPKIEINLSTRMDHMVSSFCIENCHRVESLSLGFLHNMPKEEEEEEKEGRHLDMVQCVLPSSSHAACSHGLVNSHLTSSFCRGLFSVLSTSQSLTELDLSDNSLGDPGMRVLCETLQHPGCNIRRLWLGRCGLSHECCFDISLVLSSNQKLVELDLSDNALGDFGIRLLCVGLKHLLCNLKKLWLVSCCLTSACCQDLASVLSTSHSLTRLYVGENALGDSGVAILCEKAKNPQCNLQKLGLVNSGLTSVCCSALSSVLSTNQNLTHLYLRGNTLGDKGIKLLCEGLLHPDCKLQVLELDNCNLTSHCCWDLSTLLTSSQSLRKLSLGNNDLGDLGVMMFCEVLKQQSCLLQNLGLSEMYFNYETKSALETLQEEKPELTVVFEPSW

Turning to `OC[C@@H](O)CNc1nnc(-c2ccc(Cl)cc2O)c2ccccc12` [Example 5, (2S)-3-[[4-(4-chloro-2-hydroxy-phenyl)phthalazin-1-yl]amino]propane-1,2-diol], the results for the solubility (in data set [1]; in “Solubility (Test E)”) were 7.9 µg/mL (≈ 22.8 µM) and 6 µM (≈ 2.07 µg/mL), respectively. Also, the figures for the IC50 against Human NLRP3 [2] (setting [5]) and on Human NLRP3 [3] were 17 nM and 45 nM, respectively. This molecule also showed an EC50 at Human NLRP3 [4] of 122 nM.

As to `OC[C@@H](O)CNc1nnc(-c2ccc(OC(F)(F)F)cc2O)c2ccccc12` [Example 6, (2S)-3-[[4-[2-hydroxy-4-(trifluoromethoxy)phenyl]phthalazin-1-yl]amino]propane-1,2-diol], the solubility in data set [1] was more than 79.1 µg/mL; in the data set “Solubility (Test E)” it was 130 µM (≈ 51.4 µg/mL). Moreover, the IC50 was found to be 40 nM against Human NLRP3 [2] (setting [5]) and 99 nM on Human NLRP3 [3]. At Human NLRP3 [4], the EC50 is 201 nM.

Regarding `Cc1ccc(-c2nnc(NC[C@H](O)CO)c3ccccc23)c(O)c1` [Example 11, (2S)-3-[[4-(2-hydroxy-4-methyl-phenyl)phthalazin-1-yl]amino]propane-1,2-diol], the solubility in data set [1] was more than 65.1 µg/mL; in “Solubility (Test E)”, more than 1000 µM. For the same molecule, the IC50 was 23 nM against Human NLRP3 [2] (setting [5]) and 82 nM against Human NLRP3 [3]. For the same molecule, the response on Human NLRP3 [4] was half-maximal at 207 nM (EC50).

In data set [1], `Oc1cc(C(F)(F)F)ccc1-c1nnc(N[C@@H]2CC[C@@H](O)C2)c2ccccc12` [Example 16, 2-[4-[[(1R,3R)-3-hydroxycyclopentyl]amino]phthalazin-1-yl]-5-(trifluoromethyl)phenol] had a solubility of 23.9 µg/mL (≈ 61.4 µM). Also, the figures for the IC50 against hERG, against Human NLRP3 [2] (setting [5]) and on Human NLRP3 [3] were 22000 nM, 20 nM and 30 nM, respectively. This molecule also gave an EC50 at Human NLRP3 [4] of 54 nM.

As for `Oc1cc(C(F)(F)F)ccc1-c1nnc(N[C@@H]2CCC[C@@H]2O)c2ccccc12` [Example 19, 2-[4-[[(1R,2S)-2-hydroxycyclopentyl]amino]phthalazin-1-yl]-5-(trifluoromethyl)phenol], the solubility is 10.6 µg/mL (≈ 27.2 µM) in data set [1] and 171 µM (≈ 66.6 µg/mL) in the data set “Solubility (Test E)”. For the same molecule, the IC50 on hERG was 23000 nM; on Human NLRP3 [2] (setting [5]) it was 5 nM; against Human NLRP3 [3] it was 20 nM. The EC50 at Human NLRP3 [4] is 26 nM.

For `Oc1cc(C(F)(F)F)ccc1-c1nnc(N[C@@H]2CCC[C@H]2O)c2ccccc12` [Example 20, 2-[4-[[(1R,2R)-2-hydroxycyclopentyl]amino]phthalazin-1-yl]-5-(trifluoromethyl)phenol], the solubility in data set [1] worked out at 8.6 µg/mL (≈ 22.1 µM); in “Solubility (Test E)”, 206 µM (≈ 80.2 µg/mL). The figures for the IC50 on Human NLRP3 [2] (setting [5]) and at Human NLRP3 [3] were 10 nM and 46 nM, respectively. The molecule further gave an EC50 on Human NLRP3 [4] of 162 nM.

With `Oc1cc(C(F)(F)F)ccc1-c1nnc(N[C@H]2CCC[C@H]2O)c2ccccc12` [Example 21, 2-[4-[[(1S,2R)-2-hydroxycyclopentyl]amino]phthalazin-1-yl]-5-(trifluoromethyl)phenol], the solubility in data set [1] came to 14.5 µg/mL (≈ 37.2 µM); in the data set “Solubility (Test E)” it was 71 µM (≈ 27.6 µg/mL). Also, the IC50 against hERG came to 19000 nM; against Human NLRP3 [2] (setting [5]), 8 nM; against Human NLRP3 [3], 36 nM. Also, a half-maximal effect on Human NLRP3 [4] (EC50) was put at 105 nM.

As to `Oc1cc(C(F)(F)F)ccc1-c1nnc(N[C@@H]2CCCC[C@@H]2O)c2ccccc12` [Example 23, 2-[4-[[(1R,2S)-2-hydroxycyclohexyl]amino]phthalazin-1-yl]-5-(trifluoromethyl)phenol], the solubility was found to be 4.4 µg/mL (≈ 10.9 µM) in data set [1] and 0.4 µM (≈ 0.161 µg/mL) in “Solubility (Test E)”. For the same molecule, the values for the IC50 against hERG, at Human NLRP3 [2] (setting [5]) and at Human NLRP3 [3] were 21000 nM, 14 nM and 31 nM, respectively. The same molecule yielded an EC50 at Human NLRP3 [4] of 156 nM.

With `Oc1cc(C(F)(F)F)ccc1-c1nnc(N[C@@H]2CCCC[C@H]2O)c2ccccc12` [Example 24, 2-[4-[[(1R,2R)-2-hydroxycyclohexyl]amino]phthalazin-1-yl]-5-(trifluoromethyl)phenol], the solubility was 7.9 µg/mL (≈ 19.6 µM) in data set [1] and 148 µM (≈ 59.7 µg/mL) in “Solubility (Test E)”. Besides, the IC50 is 17000 nM against hERG, 5 nM at Human NLRP3 [2] (setting [5]) and 9 nM at Human NLRP3 [3]. Besides, the EC50 on Human NLRP3 [4] came out at 38 nM.

Regarding `Oc1cc(C(F)(F)F)ccc1-c1nnc(N[C@H]2CCCC[C@H]2O)c2ccccc12` [Example 25, 2-[4-[[(1S,2R)-2-hydroxycyclohexyl]amino]phthalazin-1-yl]-5-(trifluoromethyl)phenol], the solubility amounted to 1.8 µg/mL (≈ 4.46 µM) in data set [1] and 3 µM (≈ 1.21 µg/mL) in the data set “Solubility (Test E)”. Further, the IC50 against hERG came to 7400 nM; against Human NLRP3 [2] (setting [5]), 8 nM; against Human NLRP3 [3] it was 36 nM. This molecule also showed a 50% effective concentration (EC50) on Human NLRP3 [4] of 80 nM.

In the case of `C[C@]1(O)C[C@@H](Nc2nnc(-c3ccc(C(F)(F)F)cc3O)c3ccccc23)C1` [Example 37, 2-(4-(((1s,3s)-3-hydroxy-3-methylcyclobutyl)amino)phthalazin-1-yl)-5-(trifluoromethyl)phenol], the IC50 against hERG is 29000 nM; against Human NLRP3 [3] it was 32 nM. In addition, the midpoint of the response at Human NLRP3 [4], the EC50, lay at 339 nM.

On to `Oc1cc(Cl)ccc1-c1nnc(N[C@@H]2CCC[C@H](O)C2)c2cnccc12` [Example 44, 5-chloro-2-[4-[[(1R,3S)-3-hydroxycyclohexyl]amino]pyrido[3,4-d]pyridazin-1-yl]phenol], for which the solubility was found to be 40.1 µg/mL (≈ 108 µM) in data set [1] and 636 µM (≈ 236 µg/mL) in the data set “Solubility (Test E)”. Moreover, the IC50 was more than 40000 nM against hERG and less than 3 nM against Human NLRP3 [2] (setting [5]). This molecule also gave a concentration giving a half-maximal response (EC50) on Human NLRP3 [4] of 16 nM.

For `Oc1cc(OC(F)(F)F)ccc1-c1nnc(N[C@@H]2CCC[C@H](O)C2)c2cnccc12` [Example 48, 2-[4-[[(1R,3S)-3-hydroxycyclohexyl]amino]pyrido[3,4-d]pyridazin-1-yl]-5-(trifluoromethoxy)phenol], the solubility turned out to be 80.4 µg/mL (≈ 191 µM) in data set [1] and 326 µM (≈ 137 µg/mL) in “Solubility (Test E)”. For the same molecule, the results for the IC50 on hERG, at Human NLRP3 [2] (setting [5]) and against Human NLRP3 [3] were more than 40000 nM, 4 nM and 14 nM, respectively. On Human NLRP3 [4], this molecule registered an EC50 of 29 nM.

`Oc1cc(C2CC2)ccc1-c1nnc(N[C@@H]2CCC[C@H](O)C2)c2cnccc12` [Example 52, 5-cyclopropyl-2-[4-[[(1R,3S)-3-hydroxycyclohexyl]amino]pyrido[3,4-d]pyridazin-1-yl]phenol]: the solubility in data set [1] worked out at 51.9 µg/mL (≈ 138 µM); in the data set “Solubility (Test E)”, 447 µM (≈ 168 µg/mL). Also, the IC50 is 22000 nM against hERG and 6 nM against Human NLRP3 [2] (setting [5]). This molecule also gave an EC50 on Human NLRP3 [4] of 52 nM.

`Oc1cc(Cl)ccc1-c1nnc(N[C@@H]2CCCC[C@H]2O)c2cnccc12` [Example 58, 5-chloro-2-[4-[[(1R,2R)-2-hydroxycyclohexyl]amino]pyrido[3,4-d]pyridazin-1-yl]phenol] yielded a solubility in data set [1] of 42.4 µg/mL (≈ 114 µM). Further, the IC50 at hERG was more than 40000 nM; at Human NLRP3 [2] (setting [5]) it was 2 nM. This molecule yielded an EC50 on Human NLRP3 [4] of 11 nM.

For the molecule `C[C@]1(O)C[C@@H](Nc2nnc(-c3ccc(Cl)c(F)c3O)c3ccncc23)C1` [Example 65, 3-chloro-2-fluoro-6-(4-(((1s,3s)-3-hydroxy-3-methylcyclobutyl)amino)pyrido[3,4-d]pyridazin-1-yl)phenol], the solubility was determined as 1.1 µg/mL (≈ 2.93 µM) in data set [1] and 11 µM (≈ 4.12 µg/mL) in the data set “Solubility (Test E)”. Further, the IC50 on Human NLRP3 [2] was determined as 37 nM; against Human NLRP3 [3], 114 nM. This molecule also gave an EC50 on Human NLRP3 [4] of 373 nM.

With `C[C@]1(O)C[C@@H](Nc2nnc(-c3c(O)cc(C(F)(F)F)cc3F)c3ccncc23)C1` [Example 67, 3-fluoro-2-(4-(((1s,3s)-3-hydroxy-3-methylcyclobutyl)amino)pyrido[3,4-d]pyridazin-1-yl)-5-(trifluoromethyl)phenol], the solubility in data set [1] worked out at 1.5 µg/mL (≈ 3.67 µM); in “Solubility (Test E)”, 3 µM (≈ 1.23 µg/mL). Further, the results for the IC50 against Human NLRP3 [2] and at Human NLRP3 [3] were 8 nM and 24 nM, respectively. This molecule gave a concentration for a half-maximal effect (EC50) on Human NLRP3 [4] of 67 nM.

In the case of `C[C@]1(O)C[C@@H](Nc2nnc(-c3c(O)cc(F)cc3F)c3ccncc23)C1` [Example 69, 3,5-difluoro-2-(4-(((1s,3s)-3-hydroxy-3-methylcyclobutyl)amino)pyrido[3,4-d]pyridazin-1-yl)phenol], the solubility in data set [1] is 13.6 µg/mL (≈ 38 µM); in “Solubility (Test E)”, 29 µM (≈ 10.4 µg/mL). Besides, the figures for the IC50 at Human NLRP3 [2] and on Human NLRP3 [3] were 38 nM and 149 nM, respectively. Moreover, a half-maximal effect at Human NLRP3 [4] (EC50) was put at 301 nM.

On to `CC(C)(O)CNc1nnc(-c2c(O)cc(Cl)cc2F)c2ccncc12` [Example 73, 5-chloro-3-fluoro-2-[4-[(2-hydroxy-2-methyl-propyl)amino]pyrido[3,4-d]pyridazin-1-yl]phenol], for which the solubility in data set [1] was determined as 14.1 µg/mL (≈ 38.9 µM). For the same molecule, the IC50 at hERG was more than 40000 nM; on Human NLRP3 [2] (setting [5]), 15 nM. Moreover, a half-maximal response at Human NLRP3 [4] (EC50) required 142 nM.

On to `Oc1cc(F)ccc1-c1nnc(N[C@@H]2CCCC[C@H]2O)c2cnccc12` [Example 75, 5-fluoro-2-(4-(((1R,2R)-2-hydroxycyclohexyl)amino)pyrido[3,4-d]pyridazin-1-yl)phenol], for which the IC50 was more than 40000 nM against hERG and 10 nM against Human NLRP3 [3]. For the same molecule, the response on Human NLRP3 [4] was half-maximal at 124 nM (EC50).

The molecule `Oc1cccc(F)c1-c1nnc(N[C@@H]2CCCC[C@H]2O)c2cnccc12` [Example 76, 3-fluoro-2-(4-(((1R,2R)-2-hydroxycyclohexyl)amino)pyrido[3,4-d]pyridazin-1-yl)phenol] registered an IC50 against hERG of more than 40000 nM. The molecule also displayed an EC50 on Human NLRP3 [4] of 128 nM.

For `Oc1cc(C(F)(F)F)ccc1-c1nnc(N[C@H]2CC[C@@H](O)C2)c2cnccc12` [Example 83, 2-[4-[[(1S,3R)-3-hydroxycyclopentyl]amino]pyrido[3,4-d]pyridazin-1-yl]-5-(trifluoromethyl)phenol], the solubility amounted to 4.7 µg/mL (≈ 12 µM) in data set [1] and 47 µM (≈ 18.3 µg/mL) in the data set “Solubility (Test E)”. The IC50 is more than 40000 nM on hERG, 20 nM on Human NLRP3 [2] (setting [5]) and 38 nM against Human NLRP3 [3]. On Human NLRP3 [4], it took 129 nM to reach a half-maximal effect (EC50).
